Assay results: US6737383B1, “Herbicidal oxadiazolidines” (priority 1999, dated 2004)

Columns and labels:
giant foxtail = assay: Test B pre/postemergence giant foxtail; type: in vivo, Setaria faberii
Method in brief: (§1)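 Herbicidal effect was estimated by eye on a ten-point control scale after plants spent twelve to sixteen days in a greenhouse following soil or foliar treatment. Foliar sprays targeted plants at one to four leaves; all doses were formulated in a non-phytotoxic solvent with surfactant.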

cocklebur = assay: Test B pre/postemergence cocklebur; type: in vivo, Xanthium strumarium
Method in brief: as §1

wheat = assay: Test B pre/postemergence wheat; type: in vivo, Triticum aestivum
Method in brief: as §1

corn = assay: Test B pre/postemergence corn; type: in vivo, Zea mays
Method in brief: as §1

bedstraw = assay: Test B pre/postemergence bedstraw; type: in vivo, Galium aparine
Method in brief: as §1

purple nutsedge = assay: Test B pre/postemergence purple nutsedge; type: in vivo, Cyperus rotundus
Method in brief: as §1

rice = assay: Test B flood test rice; type: in vivo, Oryza sativa
Method in brief: (§2)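 Each value is a visual injury score relative to controls, with 10 meaning complete control and 0 no effect. Evaluation took place twelve to sixteen days after the 2-leaf-stage plants were treated and kept in the greenhouse.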

velvetleaf = assay: Test B pre/postemergence velvetleaf; type: in vivo, Abutilon theophrasti
Method in brief: as §1

crabgrass = assay: Test B pre/postemergence crabgrass; type: in vivo, Digitaria sanguinalis
Method in brief: as §1

blackgrass = assay: Test B pre/postemergence blackgrass; type: in vivo, Alopecurus myosuroides
Method in brief: as §1

duck salad = assay: Test B flood test duck salad; type: in vivo, Heteranthera limosa
Method in brief: as §2

wild oat = assay: Test B pre/postemergence wild oat; type: in vivo, Avena fatua
Method in brief: as §1

surinam grass = assay: Test B pre/postemergence surinam grass; type: in vivo, Brachiaria decumbens
Method in brief: as §1

soybean = assay: Test B pre/postemergence soybean; type: in vivo, Glycine max
Method in brief: as §1

sugar beet = assay: Test B pre/postemergence sugar beet; type: in vivo, Beta vulgaris
Method in brief: as §1

pigweed = assay: Test B pre/postemergence pigweed; type: in vivo, Amaranthus retroflexus
Method in brief: as §1

[1] = Postemergence, Rate 125 g/ha, scale of 0 to 10 where 0 is no effect and 10 is complete control
[2] = Preemergence, Rate 62 g/ha, scale 0 to 10 (0 no effect, 10 complete control)
[3] = Preemergence, Rate 125 g/ha, 0 is no effect, 10 is complete control
[4] = Preemergence, Rate 250 g/ha, scale 0 to 10, 0 is no effect, 10 is complete control
[5] = Preemergence, Rate 500 g/ha, scale 0 to 10 (0 no effect, 10 complete control)
[6] = Rate 62 g/ha, Postemergence, scale of 0 to 10 where 0 is no effect and 10 is complete control
[7] = Rate 250 g/ha, Postemergence, scale 0 to 10, 0 is no effect, 10 is complete control
[8] = Rate 500 g/ha, Postemergence, scale 0 to 10
[9] = Postemergence (flood test species), Rate 125 g/ha, scale of 0 to 10 where 0 is no effect and 10 is complete control
[10] = Rate 31 g/ha, Postemergence section (flood test species), scale 0 to 10
[11] = Rate 62 g/ha, Postemergence section, flood test species, scale of 0 to 10 where 0 is no effect and 10 is complete control
[12] = Rate 250 g/ha, Postemergence (flood test), scale 0 to 10, 0 is no effect, 10 is complete control

CC(C)N(C(=O)n1oc(=O)n(C)c1=O)c1ccc(Cl)cc1 [Compound 137]
Giant foxtail plant response rating (giant foxtail; [1]): 8 | Giant foxtail plant response rating (giant foxtail; [2]): 8 | Giant foxtail plant response rating (0 to 10 scale) (giant foxtail; [3]): 9 | Giant foxtail plant response rating (giant foxtail; [4]): 10 | Giant foxtail plant response rating (giant foxtail; [5]): 10 | Giant foxtail plant response rating (giant foxtail; [6]): 8 | Plant response rating, Giant foxtail (giant foxtail; [7]): 9 | Giant foxtail plant response rating (giant foxtail; [8]): 9 | Cocklebur plant response rating (cocklebur; [1]): 0 | Cocklebur plant response rating (cocklebur; [2]): 0 | Cocklebur plant response rating (0 to 10 scale) (cocklebur; [3]): 0 | Cocklebur plant response rating (cocklebur; [4]): 0 | Cocklebur plant response rating (cocklebur; [5]): 0 | Cocklebur plant response rating (cocklebur; [6]): 0 | Plant response rating, Cocklebur (cocklebur; [7]): 3 | Cocklebur plant response rating (cocklebur; [8]): 4 | Wheat plant response rating (wheat; [1]): 0 | Wheat plant response rating (wheat; [2]): 0 | Wheat plant response rating (0 to 10 scale) (wheat; [3]): 4 | Wheat plant response rating (wheat; [4]): 5 | Wheat plant response rating (wheat; [5]): 5 | Wheat plant response rating (wheat; [6]): 0 | Plant response rating, Wheat (wheat; [7]): 5 | Wheat plant response rating (wheat; [8]): 6 | Corn plant response rating (corn; [1]): 0 | Corn plant response rating (corn; [2]): 0 | Corn plant response rating (0 to 10 scale) (corn; [3]): 0 | Corn plant response rating (corn; [4]): 0 | Corn plant response rating (corn; [5]): 4 | Corn plant response rating (corn; [6]): 0 | Plant response rating, Corn (corn; [7]): 3 | Corn plant response rating (corn; [8]): 5 | Bedstraw plant response rating (bedstraw; [1]): 8 | Bedstraw plant response rating (bedstraw; [2]): 4 | Bedstraw plant response rating (0 to 10 scale) (bedstraw; [3]): 7 | Bedstraw plant response rating (bedstraw; [4]): 7 | Bedstraw plant response rating (bedstraw; [5]): 10 | Bedstraw plant response rating (bedstraw; [6]): 4 | Plant response rating, Bedstraw (bedstraw; [7]): 8 | Nutsedge plant response rating (purple nutsedge; [1]): 0 | Nutsedge plant response rating (purple nutsedge; [2]): 0 | Nutsedge plant response rating (0 to 10 scale) (purple nutsedge; [3]): 0 | Nutsedge plant response rating (purple nutsedge; [4]): 0 | Nutsedge plant response rating (purple nutsedge; [6]): 0 | Plant response rating, Nutsedge (purple nutsedge; [7]): 3 | Nutsedge plant response rating (purple nutsedge; [8]): 4 | Rice plant response rating (rice; [9]): 0 | Rice plant response rating (rice; [10]): 0 | Rice plant response rating (rice; [11]): 0 | Plant response rating, Rice (rice; [12]): 0 | Velvetleaf plant response rating (velvetleaf; [1]): 0 | Velvetleaf plant response rating (velvetleaf; [2]): 3 | Velvetleaf plant response rating (0 to 10 scale) (velvetleaf; [3]): 6 | Velvetleaf plant response rating (velvetleaf; [4]): 7 | Velvetleaf plant response rating (velvetleaf; [5]): 10 | Velvetleaf plant response rating (velvetleaf; [6]): 0 | Plant response rating, Velvetleaf (velvetleaf; [7]): 4 | Velvetleaf plant response rating (velvetleaf; [8]): 5 | Crabgrass plant response rating (crabgrass; [1]): 8 | Crabgrass plant response rating (crabgrass; [2]): 8 | Crabgrass plant response rating (0 to 10 scale) (crabgrass; [3]): 10 | Crabgrass plant response rating (crabgrass; [4]): 10 | Crabgrass plant response rating (crabgrass; [5]): 10 | Crabgrass plant response rating (crabgrass; [6]): 7 | Plant response rating, Crabgrass (crabgrass; [7]): 9 | Crabgrass plant response rating (crabgrass; [8]): 9 | Blackgrass plant response rating (blackgrass; [1]): 6 | Blackgrass plant response rating (blackgrass; [2]): 7 | Blackgrass plant response rating (0 to 10 scale) (blackgrass; [3]): 9 | Blackgrass plant response rating (blackgrass; [4]): 9 | Blackgrass plant response rating (blackgrass; [5]): 10 | Blackgrass plant response rating (blackgrass; [6]): 5 | Plant response rating, Blackgrass (blackgrass; [7]): 8 | Blackgrass plant response rating (blackgrass; [8]): 8 | Ducksalad plant response rating (duck salad; [9]): 0 | Ducksalad plant response rating (duck salad; [10]): 0 | Ducksalad plant response rating (duck salad; [11]): 0 | Plant response rating, Ducksalad (duck salad; [12]): 0 | Wild oats plant response rating (wild oat; [1]): 2 | Wild oats plant response rating (wild oat; [2]): 5 | Wild oats plant response rating (0 to 10 scale) (wild oat; [3]): 8 | Wild oats plant response rating (wild oat; [4]): 9 | Wild oats plant response rating (wild oat; [5]): 10 | Wild oats plant response rating (wild oat; [6]): 1 | Plant response rating, Wild oats (wild oat; [7]): 4 | Wild oats plant response rating (wild oat; [8]): 5 | B. signalgrass plant response rating (surinam grass; [1]): 4 | B. signalgrass plant response rating (surinam grass; [2]): 3 | B. signalgrass plant response rating (0 to 10 scale) (surinam grass; [3]): 5 | B. signalgrass plant response rating (surinam grass; [4]): 7 | B. signalgrass plant response rating (surinam grass; [5]): 9 | B. signalgrass plant response rating (surinam grass; [6]): 0 | Plant response rating, B. signalgrass (surinam grass; [7]): 5 | B. signalgrass plant response rating (surinam grass; Rate 500 g/ha, Postemergence, scale of 0 to 10 where 0 is no effect and 10 is complete control): 8 | Soybean plant response rating (soybean; [1]): 6 | Soybean plant response rating (soybean; [2]): 0 | Soybean plant response rating (0 to 10 scale) (soybean; [3]): 0 | Soybean plant response rating (soybean; [4]): 3 | Soybean plant response rating (soybean; [5]): 5 | Soybean plant response rating (soybean; [6]): 5 | Plant response rating, Soybean (soybean; [7]): 7 | Soybean plant response rating (soybean; [8]): 8 | Sugarbeets plant response rating (sugar beet; [1]): 3 | Sugarbeets plant response rating (sugar beet; [2]): 6 | Sugarbeets plant response rating (0 to 10 scale) (sugar beet; [3]): 10 | Sugarbeets plant response rating (sugar beet; [4]): 10 | Sugarbeets plant response rating (sugar beet; [5]): 10 | Sugarbeets plant response rating (sugar beet; [6]): 3 | Plant response rating, Sugarbeets (sugar beet; [7]): 5 | Sugarbeets plant response rating (sugar beet; [8]): 6 | Redroot pigweed plant response rating (pigweed; [1]): 4 | Redroot pigweed plant response rating (pigweed; [2]): 9 | Redroot pigweed plant response rating (0 to 10 scale) (pigweed; [3]): 10 | Redroot pigweed plant response rating (pigweed; [4]): 10 | Redroot pigweed plant response rating (pigweed; [5]): 10 | Redroot pigweed plant response rating (pigweed; [6]): 2 | Plant response rating, Redroot pigweed (pigweed; [7]): 5 | Redroot pigweed plant response rating (pigweed; [8]): 6
